The source of these data is patent US9937180B2, “Constrained tricyclic sulfonamides” (ICAHN SCHOOL OF MEDICINE AT MOUNT SINAI, priority 2014, dated 2018).

One assay has as its system H1650. Briefly: H1650 Cell Viability Assays (GI50 Determination), MTT. It counts as cell-based. Particulars: Homo sapiens, NCI-H1650, H1650 cells, 48 hours after drug treatment. On the procedure: H1650 Cell Viability Assays (GI50 Determination)
Cell viability assays were performed according to Denizot, F. and R. Lang, Rapid colorimetric assay for cell growth and survival: Modifications to the tetrazolium dye procedure giving improved sensitivity and reliability Journal of Immunological Methods, 1986. 89[…]: p. 271-277.
Cells were plated at 150,000 cells per well in a 12 well plate. Twenty-four hours after plating, cells were treated as described with increasing concentrations of drug and control. Forty-eight hours after drug treatment, cells were treated with 100 uL of 3-(4,5-Dimethylthiazol-2-yl)-2,5-diphenyltetrazolium bromide (MTT) and incubated for 2 hours at 37 C. The MTT solution was subsequently replaced with 300 uL of n-propyl alcohol and re-aliquoted to a 96 well plates. Spectrophotometric analysis of each solution was performed using a 96 well plate reader at 600 nm in triplicate.
For `O=S(=O)(N[C@@H]1CCC(N2c3ccccc3CCc3ccccc32)[C@H]1O)c1ccc(OC(F)(F)F)cc1` (relative stereo) [Example 17, N-((1S,2S,3R)-rel-3-(10,11-dihydro-5H-dibenzo[b,f]azepin-5-yl)-2-hydroxycyclopentyl)-4-(trifluoromethoxy)benzenesulfonamide], the GI50 (commonly the concentration at which growth is held to half of that of the control) came out at 15 µM.

In turn, `[N-]=[N+]=Nc1ccc(S(=O)(=O)N[C@@H]2CCCC(N3c4ccccc4CCc4ccccc43)[C@H]2O)cc1` (stereo in doubt) [Example 5, N-(3-(10,11-dihydro-5H-dibenzo[b,f]azepin-5-yl)-2-hydroxycyclohexyl)-4-(azido)benzenesulfonamide] gave a concentration for 50% growth inhibition (GI50) of 15 µM.

`O=S(=O)(N[C@H]1CCC[C@@H](N2c3ccccc3CCc3cc(F)ccc32)[C@@H]1O)c1ccc(OC(F)(F)F)cc1` [Example 24, N-((1S,2S,3R)-3-(2-fluoro-10,11-dihydro-5H-dibenzo[b,f]azepin-5-yl)-2-hydroxycyclohexyl)-4-(trifluoromethoxy)benzenesulfonamide] came in with a 50% growth inhibitory concentration (GI50) of 5 µM.

Turning to `CC(C)(O)c1ccc(S(=O)(=O)N[C@H]2CCC[C@@H](N3c4ccccc4CCc4ccccc43)[C@@H]2O)cc1` [Example 27, N-((1S,2S,3R)-3-(10,11-dihydro-5H-dibenzo[b,f]azepin-5-yl)-2-hydroxycyclohexyl)-4-(2-hydroxypropan-2-yl)benzenesulfonamide], it took 15 µM to inhibit growth by half (GI50).

`O=S(=O)(N[C@H]1CCC[C@@H](N2c3ccccc3CCc3ccccc32)[C@@H]1O)c1ccc(CC(F)(F)F)cc1` [Example 30, N-(3-(10,11-dihydro-5H-dibenzo[b,f]azepin-5-yl)-2-hydroxycyclohexyl)-4-(2,2,2-trifluoroethyl)benzenesulfonamide] yielded a GI50 of 5 µM.

`O=S(=O)(N[C@@H]1CCCC(N2c3ccccc3CCc3ccccc32)[C@H]1O)c1ccc(Cl)cc1` (relative stereo) [Example 4, N-(3-(10,11-dihydro-5H-dibenzo[b,f]azepin-5-yl)-2-hydroxycyclohexyl)-4-(chloro)benzenesulfonamide]: growth was halved (GI50) at 10 µM.

Turning to `O=S(=O)(N[C@H]1CCC[C@@H](N2c3ccccc3C=Cc3ccccc32)[C@@H]1O)c1ccc(OC(F)(F)F)cc1` (racemic) [Example 25, rac-N-((1S,2S,3R)-3-(5H-dibenzo[b,f]azepin-5-yl)-2-hydroxycyclohexyl)-4-(trifluoromethoxy)benzenesulfonamide], growth was halved (GI50) at 10 µM.

Compound `O=S(=O)(N[C@H]1CCC[C@@H](N2c3ccccc3CCc3ccccc32)[C@@H]1O)c1ccc(OC(F)F)cc1` (stereo in doubt) [Example 32, 4-(difluoromethoxy)-N-(3-(10,11-dihydro-5H-dibenzo[b,f]azepin-5-yl)-2-hydroxycyclohexyl)benzenesulfonamide] yielded a GI50 of 10 µM.

In turn, `O=S(=O)(N[C@@H]1CCCC(N2c3ccccc3Sc3ccccc32)[C@H]1O)c1ccc(OC(F)(F)F)cc1` (relative stereo) [Example 20, N-((1R,2R,3S)-rel-2-hydroxy-3-(10H-phenothiazin-10-yl)cyclohexyl)-4-(trifluoromethoxy)benzenesulfonamide] displayed a concentration for 50% growth inhibition (GI50) of 5 µM. Compared with the last compound, the GI50 is about 2-fold lower.

`O=S(=O)(N[C@H]1CCC[C@@H](N2c3ccccc3CCc3ccccc32)[C@@H]1O)c1ccc(OC(F)(F)F)cc1Cl` (stereo in doubt) [Example 29, 2-chloro-N-(3-(10,11-dihydro-5H-dibenzo[b,f]azepin-5-yl)-2-hydroxycyclohexyl)-4-(trifluoromethoxy)benzenesulfonamide] gave a GI50 of 5 µM.

`O=S(=O)(N[C@@H]1CCCC(N2c3ccccc3CCc3ccccc32)[C@H]1O)c1ccc(OC(F)(F)F)cc1` (relative stereo) [Example 1, N-((1,2-trans)-3-(10,11-dihydro-5H-dibenzo[b,f]azepin-5-yl)-2-hydroxycyclohexyl)-4-(trifluoromethoxy)benzenesulfonamide] returned a GI50 of 5 µM. This lies in the single-digit micromolar range.

In turn, `O=S(=O)(N[C@H]1CCCC(N2c3ccccc3CCc3ccccc32)[C@@H]1O)c1ccc(OC(F)(F)F)cc1` (relative stereo) [Example 2, N-((1,2-trans)-3-(10,11-dihydro-5H-dibenzo[b,f]azepin-5-yl)-2-hydroxycyclohexyl)-4-(trifluoromethoxy)benzenesulfonamide] displayed a GI50 of 15 µM.

Consider `O=S(=O)(N[C@H]1CCC[C@@H](N2c3ccc(F)cc3CCc3cc(F)ccc32)[C@@H]1O)c1ccc(OC(F)(F)F)cc1` [Example 22, N-((1S,2S,3R)-3-(2,8-difluoro-10,11-dihydro-5H-dibenzo[b,f]azepin-5-yl)-2-hydroxycyclohexyl)-4-(trifluoromethoxy)benzenesulfonamide], for which the 50% growth inhibitory concentration (GI50) was found to be 7 µM.

As for `O=S(=O)(N[C@@H]1CCC[C@H](N2c3ccccc3CCc3ccccc32)[C@H]1O)c1ccc(OC(F)(F)F)cc1` [Example 3b], the concentration for 50% growth inhibition (GI50) was determined as 5 µM. This GI50 and that of the compound before are within 1.5-fold of each other.

In the case of `O=S(=O)(N[C@H]1CCC[C@@H](N2c3ccccc3CCc3ccccc32)[C@@H]1O)c1ccc(OC(F)(F)F)c(Cl)c1` (stereo in doubt) [Example 33, 3-chloro-N-(3-(10,11-dihydro-5H-dibenzo[b,f]azepin-5-yl)-2-hydroxycyclohexyl)-4-(trifluoromethoxy)benzenesulfonamide], it took 5 µM to inhibit growth by half (GI50).

Compound `COc1ccc(S(=O)(=O)N[C@H]2CCC[C@@H](N3c4ccccc4CCc4ccccc43)[C@@H]2O)cc1` [Example 23, N-((1S,2S,3R)-3-(10,11-dihydro-5H-dibenzo[b,f]azepin-5-yl)-2-hydroxycyclohexyl)-4-methoxybenzenesulfonamide] showed a GI50 of 20 µM.

Turning to `O=S(=O)(N[C@@H]1CCCC(N2c3ccccc3Sc3ccccc32)[C@H]1O)c1ccc(Cl)cc1` (relative stereo) [Example 21, 4-chloro-N-((1R,2R,3S)-rel-2-hydroxy-3-(10H-phenothiazin-10-yl)cyclohexyl)benzenesulfonamide], the concentration for 50% growth inhibition (GI50) is 10 µM. Compared with the last compound, the GI50 is about 2-fold lower.

`O=S(=O)(N[C@H]1CCC[C@@H](N2c3ccccc3CCc3ccccc32)[C@@H]1O)c1ccc(SC(F)(F)F)cc1` [Example 28, N-(3-(10,11-dihydro-5H-dibenzo[b,f]azepin-5-yl)-2-hydroxycyclohexyl)-4-((trifluoromethyl)thio)benzenesulfonamide] displayed a 50% growth inhibitory concentration (GI50) of 5 µM. This GI50 lies about 2-fold lower than the previous one.

For the compound `O=S(=O)(N[C@@H]1CCC(N2c3ccccc3CCc3ccccc32)[C@H]1O)c1ccc(Cl)cc1` (relative stereo) [Example 18, 4-chloro-N-((1S,2S,3R)-rel-3-(10,11-dihydro-5H-dibenzo[b,f]azepin-5-yl)-2-hydroxycyclopentyl)benzenesulfonamide], halving of growth (GI50) required 20 µM.

`O=S(=O)(N[C@H]1CCC[C@@H](N2c3ccccc3CCc3ccccc32)[C@@H]1O)c1ccc(C(F)(F)C(F)(F)F)cc1` [Example 31, N-(3-(10,11-dihydro-5H-dibenzo[b,f]azepin-5-yl)-2-hydroxycyclohexyl)-4-(perfluoroethyl)benzenesulfonamide] yielded a GI50 of 5 µM. This GI50 is about 4-fold lower than that of the compound before.

On to `CC(=O)c1ccc(S(=O)(=O)N[C@H]2CCC[C@@H](N3c4ccccc4CCc4ccccc43)[C@@H]2O)cc1` [Example 26, 4-Acetyl-N-((1S,2S,3R)-3-(10,11-dihydro-5H-dibenzo[b,f]azepin-5-yl)-2-hydroxycyclohexyl)benzenesulfonamide], for which growth was halved (GI50) at 20 µM.

The test system of a further assay is Molt4 cells. In words: MTS Cell Proliferation Assay (CellTiter96 AQueous). It counts as cell-based. The following applies: Homo sapiens, MOLT-4, 48 hours, average of 3 biological replicates. The procedure:
MTS Cell Proliferation Assay GI50 for Example 3a and 3b for Molt4 cells was measured using the CellTiter96 AQueous Non-Radioactive Cell Proliferation Assay (Promega). Briefly, two technical replicates of 1×10^5 cells suspended in 50 μL RPMI-1640 media were pipetted per well into a 96-well plate for each condition. An equal volume of Example 3a or 3b was dissolved in media or vehicle control (DMSO) was added to each well for final concentration of 0, 5, 10, 15, 20, 30, 40, or 80 μM of 3a or 3b. Cells were allowed to grow for 48 hours at 37° C. with 5% CO2, after which 20 μL of MTS/PMS solution was added to each well and cells were incubated for an additional 4 hrs. At the end of the incubation period, A490 was read on a Biotek uQuant spectrophotometer to measure formazen production. Relative viability was calculated as A490 for each drug condition relative to vehicle alone.
In turn, `O=S(=O)(N[C@@H]1CCC[C@H](N2c3ccccc3CCc3ccccc32)[C@H]1O)c1ccc(OC(F)(F)F)cc1` [Example 3b] gave a concentration for 50% growth inhibition (GI50) of 8 µM.
